Converted amounts (≈) assume the structure as drawn. Read-outs that look alike come from different tables or passages of the source.
Tests used:
E. coli AG100 = experiment: Broth microdilution MIC, E. coli AG100 (wild-type parent); assay type: cell-based; settings: Escherichia coli; wild-type parent E. coli AG100, broth microdilution; read-out: MIC E. coli AG100
Method in brief: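 Broth microdilution in cation-supplemented Mueller-Hinton broth, 2-fold serial compound dilutions, inoculum 5×10^5 CFU/mL from 3-5 h log culture.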

E. coli PBP2 = E. coli PBP2 (Escherichia coli (strain K12), UniProt P0AD65); experiment: E. coli PBP2 Bocillin-FL fluorescence polarization competition binding assay; settings: fluorescence polarization competition binding with Bocillin-FL; read-out: E. coli K12 PBP2 Potency (EC50)
Description: To determine the ability of boronic acid-based test PBP inhibitors to bind Penicillin Binding Proteins (PBPs), Bocillin-FL (fluorescently-labeled penicillin V; ThermoFisher Scientific) was used in a fluorescence polarization (FP) competition binding assay to assess inhibitor binding to PBP2, PBP3 or PBP4 from Escherichia coli. PBPs were cloned and purified as described previously (King, D. T, et al., ACS Infectious Diseases 2015, 1, 175-184). To establish assay conditions for competition binding, an enzyme titration/saturation binding experiment was initially performed. Bocillin-FL was prepared at 0.2 μM in a buffer comprised of 50 mM Hepes (pH 8.0), 300 mM NaCl and 5% (v/v) glycerol. Saturation binding was performed by mixing 40 μl of PBP solutions ranging in concentrations from 0-12 μM with 40 μl of the 0.2 μM Bocillin-FL solution, in individual wells of a black 384-well microplate. FP was measured immediately upon mixing (Excitation, 490 nm; Emission, 520 nm; g-factor, 0.96), using a Cytation3 (BioTek) microplate reader and measured continuously for up to 120 minutes. […] For all PBPs the FP signal approached saturation with 1.5 μM PBP (final concentration). […] Assays (80 μl final volume) were performed with PBPs at a final concentration of 1.5 μM, Bocillin-FL at 0.1 μM and beta-lactam concentrations that ranged from 0-1000 μM. […] Bocillin-FL was added and the FP immediately measured for 60 minutes (90 minutes for PBP2). The beta-lactam potency was reported as the concentration of beta-lactam required to reduce binding of Bocillin-FL by […] (EC50). […] Binding assays for boronic acid PBP inhibitors were performed in an identical fashion.

K. pneumoniae SI-117 = experiment: microbe, parasite or virus in culture; assay type: cell-based; settings: Klebsiella pneumoniae, SI117, read-out: MIC K. pneumoniae SI-117
Method in brief: (§1)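 Strains are tested by standard CLSI broth microdilution. Log-phase cells, diluted by OD600 to 5×10^5 CFU/mL, meet 2-fold compound series and incubate 16-20 hours at 37° C before the lowest growth-free concentration is recorded.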

E. coli D22 = experiment: microbe, parasite or virus in culture; assay type: cell-based; settings: Escherichia coli; hyper-permeable E. coli D22, broth microdilution; read-out: MIC E. coli D22
Method in brief: as §1

K. pneumoniae UMM = experiment: microbe, parasite or virus in culture; assay type: cell-based; settings: Klebsiella pneumoniae; K. pneumoniae UMM producing SHV-5 and KPC-2; read-out: MIC K. pneumoniae UMM
Method in brief: as §1

E. coli 901C = experiment: microbe, parasite or virus in culture; assay type: cell-based; settings: Escherichia coli; hyper-permeable E. coli 901C, broth microdilution; read-out: MIC E. coli 901C
Method in brief: as §1

E. coli AG100A = experiment: microbe, parasite or virus in culture; assay type: cell-based; settings: Escherichia coli, read-out: MIC E. coli AG100A
Method in brief: as §1

E. coli ATCC 25922 = experiment: Broth microdilution MIC, E. coli ATCC 25922; assay type: cell-based; settings: Escherichia coli, ATCC25922; E. coli ATCC 25922, broth microdilution; read-out: MIC E. coli 25922
Method in brief: as §1

E. coli PBP3 = E. coli PBP3 (Escherichia coli (strain K12), UniProt P0AD68); experiment: E. coli PBP3 Bocillin-FL fluorescence polarization competition binding assay
Method in brief: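 Competition against 0.1 μM Bocillin-FL for binding to 1.5 μM purified protein, read by fluorescence polarization for 60 min. Compounds tested from 0 to 1000 μM; EC50 taken as the concentration reducing probe binding.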

K. pneumoniae 848844 = experiment: microbe, parasite or virus in culture; assay type: cell-based, Klebsiella pneumoniae; settings: Klebsiella pneumoniae; K. pneumoniae 848844 producing SHV-11 and KPC-2; read-out: MIC K. pneumoniae 848844
Method in brief: as §1

E. coli PBP1b = E. coli PBP1b (Escherichia coli (strain K12), UniProt P02919); experiment: Radioligand competition binding assay with 14C-labeled boronic acid probe, PBP1b
[1] = test system: engineered strain of Escherichia coli harboring CTX-M15; experiment: microbe, parasite or virus in culture; assay type: cell-based; settings: Escherichia coli, read-out: Microbiological Activity (MIC in mg/L), E. coli DH5α/pLBII-CTX-M15, engineered strain producing CTX-M15
[2] = test system: N. gonorrhoeae ATCC 49226; experiment: Liquid broth MIC, N. gonorrhoeae ATCC 49226; assay type: cell-based; settings: Neisseria gonorrhoeae, ATCC49226; N. gonorrhoeae ATCC 49226, liquid broth; read-out: Minimum Inhibitory Concentration, N. gonorrhoeae ATCC 49226
Method in brief: (§2)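 Growth inhibition was scored by eye as the lowest compound concentration free of bacterial growth. Cultures from Kellogg's-supplemented GC agar, diluted to 5×10^5 CFU/mL, were exposed to serially diluted compound for 40-42 h at 36° C under 5% CO2.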

N. gonorrhoeae FA1090 = experiment: Liquid broth MIC, N. gonorrhoeae FA1090; assay type: cell-based; settings: Neisseria gonorrhoeae; N. gonorrhoeae FA1090, liquid broth; read-out: Minimum Inhibitory Concentration, N. gonorrhoeae FA1090
Method in brief: as §2

N. gonorrhoeae WHO F = experiment: Liquid broth MIC, N. gonorrhoeae WHO F; assay type: cell-based; settings: Neisseria gonorrhoeae; N. gonorrhoeae WHO F, liquid broth; read-out: Minimum Inhibitory Concentration, N. gonorrhoeae WHO F
Method in brief: as §2

N. gonorrhoeae FA19 = experiment: Liquid broth MIC, N. gonorrhoeae FA19; assay type: cell-based; settings: Neisseria gonorrhoeae; N. gonorrhoeae FA19, liquid broth; read-out: Minimum Inhibitory Concentration, N. gonorrhoeae FA19
Method in brief: as §2

[3] = fluorescence polarization competition binding with Bocillin-FL, read-out: E. coli K12 PBP3 Potency

Sequence of E. coli PBP3 (P0AD68 whole entry): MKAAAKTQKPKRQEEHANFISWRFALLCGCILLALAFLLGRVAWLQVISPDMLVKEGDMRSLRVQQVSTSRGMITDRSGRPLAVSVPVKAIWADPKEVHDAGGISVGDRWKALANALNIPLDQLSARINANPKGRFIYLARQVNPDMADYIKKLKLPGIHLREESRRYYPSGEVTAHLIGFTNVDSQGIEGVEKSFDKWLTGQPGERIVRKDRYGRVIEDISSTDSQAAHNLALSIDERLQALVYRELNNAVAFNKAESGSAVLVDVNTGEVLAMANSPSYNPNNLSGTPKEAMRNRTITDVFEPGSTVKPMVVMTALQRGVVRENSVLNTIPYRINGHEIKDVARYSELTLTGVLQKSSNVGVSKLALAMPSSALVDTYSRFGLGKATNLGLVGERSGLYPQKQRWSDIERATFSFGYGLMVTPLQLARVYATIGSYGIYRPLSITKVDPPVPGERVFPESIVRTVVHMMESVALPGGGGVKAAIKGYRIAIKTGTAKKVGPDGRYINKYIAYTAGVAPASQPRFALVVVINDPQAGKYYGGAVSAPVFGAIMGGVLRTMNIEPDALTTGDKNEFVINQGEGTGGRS
Sequence of E. coli PBP2 (P0AD65 whole entry): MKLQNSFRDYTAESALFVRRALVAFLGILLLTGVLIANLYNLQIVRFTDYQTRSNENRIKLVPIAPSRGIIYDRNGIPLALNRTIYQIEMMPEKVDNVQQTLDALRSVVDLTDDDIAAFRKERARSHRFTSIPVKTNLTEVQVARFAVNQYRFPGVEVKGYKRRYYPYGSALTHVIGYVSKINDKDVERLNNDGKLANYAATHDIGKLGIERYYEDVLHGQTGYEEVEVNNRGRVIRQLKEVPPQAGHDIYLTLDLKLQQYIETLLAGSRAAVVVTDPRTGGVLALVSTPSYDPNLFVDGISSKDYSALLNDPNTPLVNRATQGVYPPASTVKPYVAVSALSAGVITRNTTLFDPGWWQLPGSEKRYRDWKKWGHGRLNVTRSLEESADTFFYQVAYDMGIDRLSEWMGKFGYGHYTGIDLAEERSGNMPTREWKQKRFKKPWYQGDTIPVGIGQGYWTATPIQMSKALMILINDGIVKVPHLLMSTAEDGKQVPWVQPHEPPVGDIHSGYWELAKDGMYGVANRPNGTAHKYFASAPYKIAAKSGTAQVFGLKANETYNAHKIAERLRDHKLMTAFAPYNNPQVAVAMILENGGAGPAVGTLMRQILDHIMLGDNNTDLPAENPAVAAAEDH
Sequence of E. coli PBP1b (P02919 whole entry): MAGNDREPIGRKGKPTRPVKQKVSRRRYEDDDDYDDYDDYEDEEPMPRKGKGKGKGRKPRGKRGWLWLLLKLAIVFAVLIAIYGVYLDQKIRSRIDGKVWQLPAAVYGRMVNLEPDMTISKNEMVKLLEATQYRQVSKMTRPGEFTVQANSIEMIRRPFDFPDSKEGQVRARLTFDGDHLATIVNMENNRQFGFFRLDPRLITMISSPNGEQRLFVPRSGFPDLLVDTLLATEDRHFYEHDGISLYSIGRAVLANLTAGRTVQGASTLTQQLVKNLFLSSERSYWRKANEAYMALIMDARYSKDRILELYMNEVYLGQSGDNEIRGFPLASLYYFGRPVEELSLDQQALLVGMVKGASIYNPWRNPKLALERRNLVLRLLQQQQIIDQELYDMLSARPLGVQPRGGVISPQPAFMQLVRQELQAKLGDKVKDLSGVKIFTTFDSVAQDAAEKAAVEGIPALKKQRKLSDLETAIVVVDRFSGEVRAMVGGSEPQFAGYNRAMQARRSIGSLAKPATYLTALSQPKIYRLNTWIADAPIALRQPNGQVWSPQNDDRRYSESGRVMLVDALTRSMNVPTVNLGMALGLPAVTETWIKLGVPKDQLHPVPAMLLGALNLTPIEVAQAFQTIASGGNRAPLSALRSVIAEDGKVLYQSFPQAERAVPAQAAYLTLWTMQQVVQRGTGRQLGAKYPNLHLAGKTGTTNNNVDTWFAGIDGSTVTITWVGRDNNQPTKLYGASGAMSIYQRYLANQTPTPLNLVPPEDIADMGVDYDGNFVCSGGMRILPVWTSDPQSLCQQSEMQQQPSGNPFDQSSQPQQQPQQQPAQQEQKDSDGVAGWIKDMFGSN

SMILES: CCN1CCN(C(=O)N[C@@H](C(=O)N[C@H]2Cc3cccc(C(=O)O)c3OB2O)c2ccc(O)c(F)c2)C(=O)C1=O [Example 156, (R)-3-((R)-2-(4-ethyl-2,3-dioxopiperazine-1-carboxamido)-2-(3-fluoro-4-hydroxyphenyl)acetamido)-2-hydroxy-3,4-dihydro-2H-benzo[e][1,2]oxaborinine-8-carboxylic acid]
- MIC (E. coli AG100): 32 to 64 µg/mL
- EC50 (E. coli PBP2): > 500 µM
- MIC (K. pneumoniae SI-117): 32 to 64 µg/mL
- MIC (E. coli D22): 2 to 4 µg/mL
- MIC (K. pneumoniae UMM): 32 to 64 µg/mL
- MIC (E. coli 901C): < 0.25 µg/mL
- MIC (E. coli AG100A): 2 to 4 µg/mL
- MIC (E. coli ATCC 25922): 32 to 64 µg/mL
- EC50 (E. coli PBP3; [3]): < 30 µM
- MIC (K. pneumoniae 848844): 32 to 64 µg/mL

SMILES: CCN1CCN(C(=O)NC(C(=O)N[C@H]2Cc3cccc(C(=O)O)c3OB2O)c2ccc(F)cn2)C(=O)C1=O (stereo partly drawn) [Example 114, (3R)-3-(2-(4-ethyl-2,3-dioxopiperazine-1-carboxamido)-2-(5-fluoropyridin-2-yl)acetamido)-2-hydroxy-3,4-dihydro-2H-benzo[e][1,2]oxaborinine-8-carboxylic acid]
- EC50 (E. coli PBP2): > 500 µM
- EC50 (E. coli PBP1b): > 100 µM
- MIC [1]: 128 to 256 mg/L (≈ 243 to 486 µM)
- EC50 (E. coli PBP3): 30 to 500 µM

SMILES: C[C@@H](O)[C@@H](NC(=O)N1CCN(CCF)C(=O)C1=O)C(=O)N[C@H]1Cc2ccc(F)c(C(=O)O)c2OB1O [Example 126, (R)-7-fluoro-3-((2R,3R)-2-(4-(2-fluoroethyl)-2,3-dioxopiperazine-1-carboxamido)-3-hydroxybutanamido)-2-hydroxy-3,4-dihydro-2H-benzo[e][1,2]oxaborinine-8-carboxylic acid]
- MIC (E. coli AG100): 8 to 16 µg/mL
- EC50 (E. coli PBP2): > 500 µM
- MIC (K. pneumoniae SI-117): 8 to 16 µg/mL
- MIC (E. coli D22): 2 to 4 µg/mL
- MIC (K. pneumoniae UMM): 8 to 16 µg/mL
- MIC (E. coli 901C): 2 to 4 µg/mL
- MIC (E. coli AG100A): 8 to 16 µg/mL
- MIC (E. coli ATCC 25922): 8 to 16 µg/mL
- EC50 (E. coli PBP3; [3]): > 500 µM
- MIC (K. pneumoniae 848844): 32 to 64 µg/mL

SMILES: CCN1CCN(C(=O)NC(C(=O)N[C@H]2Cc3cccc(C(=O)O)c3OB2O)c2ccc(OC)cn2)C(=O)C1=O (stereo partly drawn) [Example 81, (3R)-3-(2-(4-ethyl-2,3-dioxopiperazine-1-carboxamido)-2-(5-methoxypyridin-2-yl)acetamido)-2-hydroxy-3,4-dihydro-2H-benzo[e][1,2]oxaborinine-8-carboxylic acid]
- EC50 (E. coli PBP2): 30 to 500 µM
- MIC [1]: 128 to 256 mg/L (≈ 237 to 475 µM)
- EC50 (E. coli PBP3): 30 to 500 µM

SMILES: CCN1CCN(C(=O)NC(C(=O)N[C@H]2Cc3ccc(F)c(C(=O)O)c3OB2O)c2cccs2)C(=O)C1=O (stereo partly drawn) [Example 142, (3R)-3-(2-(4-ethyl-2,3-dioxopiperazine-1-carboxamido)-2-(thiophen-2-yl)acetamido)-7-fluoro-2-hydroxy-3,4-dihydro-2H-benzo[e][1,2]oxaborinine-8-carboxylic acid]
- MIC [2]: 0.25 to 0.5 µg/mL (≈ 0.47 to 0.939 µM)
- MIC (N. gonorrhoeae FA1090): < 0.125 µg/mL
- EC50 (E. coli PBP2): > 500 µM
- MIC (N. gonorrhoeae WHO F): < 0.125 µg/mL
- EC50 (E. coli PBP3): 30 to 500 µM
- MIC (N. gonorrhoeae FA19): 1 to 2 µg/mL (≈ 1.88 to 3.76 µM)

SMILES: CCN1CCN(C(=O)NC(C(=O)N[C@H]2Cc3cccc(C(=O)O)c3OB2O)c2ccc(NS(C)(=O)=O)cn2)C(=O)C1=O (stereo partly drawn) [Example 154, (3R)-3-(2-(4-ethyl-2,3-dioxopiperazine-1-carboxamido)-2-(5-(methylsulfonamido)pyridin-2-yl)acetamido)-2-hydroxy-3,4-dihydro-2H-benzo[e][1,2]oxaborinine-8-carboxylic acid]
- MIC (E. coli AG100): > 128 µg/mL
- EC50 (E. coli PBP2): 30 to 500 µM
- MIC (K. pneumoniae SI-117): > 128 µg/mL
- MIC (E. coli D22): 8 to 16 µg/mL
- MIC (K. pneumoniae UMM): > 128 µg/mL
- MIC (E. coli 901C): 0.5 to 1 µg/mL
- MIC (E. coli AG100A): 8 to 16 µg/mL
- MIC (E. coli ATCC 25922): > 128 µg/mL
- EC50 (E. coli PBP3): 30 to 500 µM
- MIC (K. pneumoniae 848844): > 128 µg/mL

SMILES: CCCN1CCN(C(=O)NC(C(=O)N[C@H]2Cc3cccc(C(=O)O)c3OB2O)c2cnc(N)s2)C(=O)C1=O (stereo partly drawn) [Example 101, (3R)-3-(2-(2-aminothiazol-5-yl)-2-(2,3-dioxo-4-propylpiperazine-1-carboxamido)acetamido)-2-hydroxy-3,4-dihydro-2H-benzo[e][1,2]oxaborinine-8-carboxylic acid]
- MIC [2]: 1 to 2 µg/mL (≈ 1.84 to 3.67 µM)
- MIC (N. gonorrhoeae FA1090): < 0.125 µg/mL
- EC50 (E. coli PBP2): > 500 µM
- MIC [1]: 32 to 64 mg/L (≈ 58.8 to 118 µM)
- MIC (N. gonorrhoeae WHO F): < 0.125 µg/mL
- EC50 (E. coli PBP3): 30 to 500 µM
- MIC (N. gonorrhoeae FA19): 1 to 2 µg/mL (≈ 1.84 to 3.67 µM)

SMILES: CCN1CCN(C(=O)NC(C(=O)N[C@H]2Cc3cccc(C(=O)O)c3OB2O)c2ccc(N)nc2)C(=O)C1=O (stereo partly drawn) [Example 148, (3R)-3-(2-(6-aminopyridin-3-yl)-2-(4-ethyl-2,3-dioxopiperazine-1-carboxamido)acetamido)-2-hydroxy-3,4-dihydro-2H-benzo[e][1,2]oxaborinine-8-carboxylic acid]
- MIC (E. coli AG100): 32 to 64 µg/mL
- EC50 (E. coli PBP2): > 500 µM
- MIC (K. pneumoniae SI-117): 32 to 64 µg/mL
- MIC (E. coli D22): 2 to 4 µg/mL
- MIC (K. pneumoniae UMM): 32 to 64 µg/mL
- MIC (E. coli 901C): 0.5 to 1 µg/mL
- MIC (E. coli AG100A): 2 to 4 µg/mL
- MIC (E. coli ATCC 25922): 8 to 16 µg/mL
- EC50 (E. coli PBP3): 30 to 500 µM
- MIC (K. pneumoniae 848844): 32 to 64 µg/mL

From patent publication US12173018B2, “Penicillin-binding protein inhibitors” (priority 2018, dated 2024)
